What was measured:
[1] = cited from earlier work
[2] = hygroscopicity: caking or sticking on exposure to air; format: physicochemical; details: 25° C., relative humidity of 60±5%, 24 hours exposure to air
Source text: The obtained L-carnitine calcium fumarate is in uniform powder form with good fluidity, more than 98% of which is smaller than 40 mesh size. […] The product has a calcium content of 6.76% with good non-hygrosopicity.
The obtained L-carnitine calcium fumarate is in uniform powder form and has good fluidity, greater than 98% of which is smaller than 40 mesh in granular size. […] The product has a calcium content of 9.28%, with better non-hygrosopicity.

| Molecule | relative humidity at which the salt will deliquesce [1] | caking or sticking phenomena (non-hygroscopicity) [2] |
| --- | --- | --- |
| C[N+](C)(C)C[C@H](O)CC(=O)[O-].O=C(O)C(O)C(O)C(=O)O [L-carnitine tartrate, L-carnitine L-tartrate] | over 60% | – |
| L-Carnitine Calcium Fumarate (1:2:1) [Example 2] | – | no caking or sticking phenomena |
| L-Carnitine Calcium Fumarate (2:2:1) [Example 1] | – | no caking or sticking phenomena |

Reference: patent publication US20110245537A1, “L-carnitine calcium fumarate, preparation method and application for the same” (Liaoning Konepnutra Co., Ltd, priority 2009, published 2011)
